Test results taken from ChEMBL document CHEMBL3046325, “Synthesis, computational studies, and preliminary pharmacological evaluation of new arylpiperazines as potential antipsychotics” (Med Chem Res, 2012).

Columns and labels:
Mus musculus [1] = experiment: Antipsychotic activity in ip dosed Mus musculus Swiss albino (mouse) assessed as inhibition of […] -induced climbing behavior pretreated 10 min prior to 2.5 mg/kg, ip apomorphine administration measured at 5 min intervals for up to 20 min starting 10 min after apomorphine challenge; format: functional; conditions: route intraperitoneal
Mus musculus [2] = experiment: Induction of catalepsy in ip dosed Mus musculus albino (mouse) measured at 30 min interval until 120 min and at the end of 240 min; format: organism-based; conditions: in vivo
Mus musculus [3] = experiment: Antipsychotic activity in ip dosed Mus musculus Swiss albino (mouse) assessed as inhibiton of 5-HTP-induced head twitches pretreated 30 min before 50 mg/kg, sc 5-HTP administration measured at 10 min intervals for 30 min, starting 20 min after 5-HTP challenge; format: functional

Cc1ccc(N2CCN(CCOc3ccccc3C(N)=O)CC2)cc1
ED50 (Mus musculus [1]): 40.5 mg/kg | ED50 (Mus musculus [2]): > 80 mg/kg | ED50 (Mus musculus [3]): 27.2 mg/kg

Cc1cccc(N2CCN(CCOc3ccccc3C(N)=O)CC2)c1
ED50 (Mus musculus [1]): 40 mg/kg | ED50 (Mus musculus [2]): 70 mg/kg | ED50 (Mus musculus [3]): > 20 mg/kg

COc1ccccc1N1CCN(CCCOc2ccccc2C(N)=O)CC1
ED50 (Mus musculus [1]): 50 mg/kg | ED50 (Mus musculus [2]): > 60 mg/kg | ED50 (Mus musculus [3]): 18.2 mg/kg

COc1ccccc1N1CCN(CCOc2ccccc2C(N)=O)CC1
ED50 (Mus musculus [1]): 40 mg/kg | ED50 (Mus musculus [2]): 100 mg/kg | ED50 (Mus musculus [3]): 10 mg/kg

CN1CCN(C2=Nc3cc(Cl)ccc3Nc3ccccc32)CC1 [CLOZAPINE]
ED50 (Mus musculus [1]): 8.7 mg/kg | ED50 (Mus musculus [3]): 2.8 mg/kg

NC(=O)c1ccccc1OCCN1CCN(c2ccccc2Cl)CC1
ED50 (Mus musculus [1]): > 40 mg/kg | ED50 (Mus musculus [2]): > 80 mg/kg | ED50 (Mus musculus [3]): > 20 mg/kg

COc1ccccc1N1CCN(CCCCOc2ccccc2C(N)=O)CC1
ED50 (Mus musculus [1]): 50.8 mg/kg | ED50 (Mus musculus [2]): > 70 mg/kg | ED50 (Mus musculus [3]): > 40 mg/kg

NC(=O)c1ccccc1OCCCCN1CCN(c2ccccc2)CC1
ED50 (Mus musculus [1]): > 40 mg/kg | ED50 (Mus musculus [2]): > 60 mg/kg | ED50 (Mus musculus [3]): > 40 mg/kg

COc1cccc(N2CCN(CCOc3ccccc3C(N)=O)CC2)c1
ED50 (Mus musculus [1]): > 40 mg/kg | ED50 (Mus musculus [2]): > 80 mg/kg | ED50 (Mus musculus [3]): 25 mg/kg

NC(=O)c1ccccc1OCCCN1CCN(c2ccccc2)CC1
ED50 (Mus musculus [1]): > 40 mg/kg | ED50 (Mus musculus [2]): > 60 mg/kg | ED50 (Mus musculus [3]): > 20 mg/kg

NC(=O)c1ccccc1OCCN1CCN(c2ccccc2)CC1
ED50 (Mus musculus [1]): 35.3 mg/kg | ED50 (Mus musculus [2]): 50 mg/kg | ED50 (Mus musculus [3]): 30 mg/kg
